Results on 20 compounds are retold here after ChEMBL document CHEMBL3616373, “Identification of N-sulfonyl-tetrahydroquinolines as RORc inverse agonists” (Bioorg Med Chem Lett, 2015).

Some results are limits rather than exact numbers.

Test [1] has as its target T1, Nuclear receptor ROR-gamma (Homo sapiens, UniProt P51449).
T1 sequence (P51449 whole entry): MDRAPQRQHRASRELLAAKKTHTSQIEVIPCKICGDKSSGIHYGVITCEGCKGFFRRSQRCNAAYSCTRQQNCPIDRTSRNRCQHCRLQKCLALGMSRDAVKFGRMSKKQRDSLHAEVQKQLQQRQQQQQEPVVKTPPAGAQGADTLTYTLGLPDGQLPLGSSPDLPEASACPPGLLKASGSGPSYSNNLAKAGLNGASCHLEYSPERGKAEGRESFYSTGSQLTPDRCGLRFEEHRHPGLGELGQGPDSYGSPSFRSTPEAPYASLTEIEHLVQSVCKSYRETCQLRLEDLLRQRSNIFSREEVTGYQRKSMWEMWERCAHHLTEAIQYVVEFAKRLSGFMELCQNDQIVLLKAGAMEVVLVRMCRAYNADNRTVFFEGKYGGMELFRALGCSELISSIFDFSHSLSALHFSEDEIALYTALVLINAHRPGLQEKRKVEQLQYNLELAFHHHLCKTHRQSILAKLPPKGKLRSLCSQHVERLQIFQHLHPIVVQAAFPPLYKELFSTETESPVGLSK
Briefly: Inverse agonist activity at N-terminal 6xHis-tagged human RORc ligand binding domain (241 to 486) expressed in bacterial expression system assessed as inhibition of SRC1 co-activator peptide recruitment after 3 hrs by TR-FRET analysis. It counts as functional.

Test [2] concerns the target T2, Nuclear receptor ROR-gamma (Homo sapiens) (UniProt P51449).
T2 sequence (whole entry): T1 sequence (P51449 whole entry)
In words: Inverse agonist activity at N-terminal 6xHis-tagged human RORc ligand binding domain (241 to 486) expressed in bacterial expression system assessed as inhibition of SRC1 co-activator peptide recruitment after 3 hrs by TR-FRET analysis relative to apo-RORc ligand binding domain.

Test [3] concerns the target T1, Nuclear receptor ROR-gamma. In words: Displacement of [3H2]-25-hydroxycholesterol from N-terminal 6xHis-tagged human RORc ligand binding domain (241 to 486) expressed in bacterial expression system after 3 hrs by scintillation counting analysis.

Turning to `CS(=O)(=O)N1CCCc2ccc(NC(=O)c3c(F)cccc3F)cc21`, in test [1], the EC50 was greater than 10000 nM.
For the compound `O=C(Nc1ccc2c(c1)N(S(=O)(=O)c1ccc(F)cc1)CCC2)c1ccc(F)cc1`, the half-maximal effective concentration (EC50) in test [1] amounted to 1700 nM. Besides, in test [2], the Efficacy was -75%.
With `O=C(Nc1ccc2c(c1)N(S(=O)(=O)c1ccc(F)cc1)CCC2)c1ccno1`, in test [1], the EC50 was 7400 nM. In addition, in test [2], the Efficacy is -54%.
Regarding `CC(=O)Nc1ccc2c(c1)N(S(=O)(=O)c1ccc(F)cc1)CCC2`, in test [1], the EC50 was greater than 10000 nM.
Regarding `O=C(Nc1ccc2c(c1)N(S(=O)(=O)c1ccc(F)cc1)CCCC2)c1c(F)cccc1F`, the EC50 in test [1] stood at 230 nM. The Efficacy in test [2] was -96%.
As for `O=C(Nc1ccc2c(c1)N(S(=O)(=O)c1ccccc1)CCC2)c1c(F)cccc1F`, the EC50 in test [1] is 230 nM. For the same compound, the Efficacy in test [2] was -91%. Also, the IC50 in test [3] was 180 nM.
With `O=C(Nc1ccc2c(c1)CCCN2S(=O)(=O)c1ccc(F)cc1)c1c(F)cccc1F`, in test [1], the EC50 is greater than 10000 nM.
Still for that read-out and setting: as for `O=C(Nc1ccc2c(c1)CCCCN2S(=O)(=O)c1ccc(F)cc1)c1c(F)cccc1F`, the figure is greater than 10000 nM.
As to `O=S(=O)(Nc1ccc2c(c1)N(S(=O)(=O)c1ccc(F)cc1)CCC2)c1ccccc1`, the 50% effective concentration (EC50) in test [1] amounted to 570 nM. For the same compound, in test [2], the Efficacy is -77%.
For the compound `O=C(Nc1ccc2c(c1)CCN2S(=O)(=O)c1ccc(F)cc1)c1c(F)cccc1F`, the EC50 in test [1] is greater than 10000 nM.
With `O=C(Nc1ccc2c(c1)N(S(=O)(=O)c1ccc(F)cc1)CCC2)c1cccc(F)c1`, the concentration giving a half-maximal response (EC50) in test [1] was 470 nM. Further, the Efficacy in test [2] is -69%.
Consider `O=C(Nc1ccc2c(c1)N(C(=O)c1ccccc1)CCC2)c1c(F)cccc1F`, for which the EC50 in test [1] was greater than 10000 nM.
For `O=C(Nc1ccc2c(c1)N(S(=O)(=O)c1cccs1)CCC2)c1c(F)cccc1F`, the EC50 in test [1] came out at 2100 nM. The Efficacy in test [2] is -77%. The IC50 in test [3] stood at 1100 nM.
Take `Cc1ccc(S(=O)(=O)N2CCCc3ccc(NC(=O)c4c(F)cccc4F)cc32)cc1`: the EC50 in test [1] came to 150 nM. For the same compound, the Efficacy in test [2] is -95%. The compound further showed an IC50 in test [3] of 110 nM.
On to `O=C(Nc1ccc2c(c1)N(S(=O)(=O)c1ccc(F)cc1)CCC2)c1ccccc1F`, for which the EC50 in test [1] is 420 nM. Besides, the Efficacy in test [2] is -81%.
The matching figures for `Cc1ccccc1C(=O)Nc1ccc2c(c1)N(S(=O)(=O)c1ccc(F)cc1)CCC2`: 120 nM and -80%.
The corresponding values for `O=C(Nc1ccc2c(c1)N(S(=O)(=O)c1ccc(F)cc1)CCC2)C1CC1` are 3600 nM and -63%.
The corresponding values for `O=C(Nc1ccc2c(c1)N(S(=O)(=O)c1ccc(F)cc1)CCC2)c1ccccc1` are 550 nM and -89%.
With `O=C(Nc1ccc2c(c1)N(S(=O)(=O)c1ccc(F)cc1)CCC2)c1cnccn1`, the EC50 in test [1] was greater than 10000 nM.
`O=C(Nc1ccc2c(c1)N(S(=O)(=O)c1ccc(F)cc1)CCC2)c1ccncc1`: the EC50 in test [1] came to 6800 nM. Besides, in test [2], the Efficacy was -58%.
